Values of other authors, collected in PMC9337769 (Science Advances, 2022).

Assays:
PKA-C [1] = conditions: substrate binding cooperativity of ligand-bound PKA-C
PKA-C [2] = conditions: inhibition of PKA-C; literature value

| Ki (PKA-C [2]) [nM] | SMILES | K-type cooperativity (in words) (PKA-C [1]) |
| --- | --- | --- |
|  | O=S(=O)(NCCNCC=Cc1ccc(Br)cc1)c1cccc2cnccc12 [H89, N-[2-(p-bromocinnamylamino)ethyl]-5-isoquinoline sulfonamide] | negative K-type cooperativity |
|  | Nc1ncnc2c1ncn2[C@@H]1O[C@H](COP(=O)(O)OP(=O)(O)CP(=O)(O)O)[C@@H](O)[C@H]1O [adenosine 5′-(β,γ-methylene) triphosphate] | lacks K-type cooperativity |
| ~4 | O=C(N[C@@H]1CNCCC[C@H]1OC(=O)c1cc(O)c(C(=O)c2c(O)cccc2C(=O)O)c(O)c1)c1ccc(O)cc1 [balanol] |  |
